BindingDB's records for doi:10.1016/j.bmcl.2009.09.017 (Pfizer, 2009)
pIC50: −log10 of the molar value.

Test: Antagonist activity at P2Y12 receptor in human platelet rich plasma assessed as inhibition of ADP-induced platelet aggregation by light transmission aggregometry

Row | pIC50 | SMILES
1 | 6.40 | CCCCCOC(=O)N1CCN(C(=O)[C@H](CCC(=O)O)NC(=O)c2cc(N3CCC(C(=O)N(CC)CC)CC3)nc(-c3ccccc3)n2)CC1 [(S)-4-(6-(4-(diethylcarbamoyl)piperidin-1-yl)-2-phenylpyrimidine-4-carboxamido)-5-oxo-5-(4-(pentyloxycarbonyl)piperazin-1-yl)pentanoic acid]
2 | 5.80 | CCCCCOC(=O)N1CCN(C(=O)[C@H](CCC(=O)O)NC(=O)c2cc(N3CCN(C(=O)N(C)C)CC3)nc(-c3ccccc3)n2)CC1 [(S)-4-(6-(4-(dimethylcarbamoyl)piperazin-1-yl)-2-phenylpyrimidine-4-carboxamido)-5-oxo-5-(4-(pentyloxycarbonyl)piperazin-1-yl)pentanoic acid]
3 | 6.43 | CCCCCOC(=O)N1CCN(C(=O)[C@H](CCC(=O)O)NC(=O)c2cc(N3CCC(C(=O)N(C)C)CC3)nc(-c3ccccc3)n2)CC1 [(S)-4-(6-(4-(dimethylcarbamoyl)piperidin-1-yl)-2-phenylpyrimidine-4-carboxamido)-5-oxo-5-(4-(pentyloxycarbonyl)piperazin-1-yl)pentanoic acid]
4 | 6.03 | CCCCCOC(=O)N1CCN(C(=O)[C@H](CCC(=O)O)NC(=O)c2cc(N3CCC(C(=O)NCC)CC3)nc(-c3ccccc3)n2)CC1 [(S)-4-(6-(4-(ethylcarbamoyl)piperidin-1-yl)-2-phenylpyrimidine-4-carboxamido)-5-oxo-5-(4-(pentyloxycarbonyl)piperazin-1-yl)pentanoic acid]
5 | 5.70 | CCCCCOC(=O)N1CCN(C(=O)[C@H](CCC(=O)O)NC(=O)c2cc(N3CCC(COC)CC3)nc(-c3ccccc3)n2)CC1 [(S)-4-(6-(4-(methoxymethyl)piperidin-1-yl)-2-phenylpyrimidine-4-carboxamido)-5-oxo-5-(4-(pentyloxycarbonyl)piperazin-1-yl)pentanoic acid]
6 | 5.82 | CCCCCOC(=O)N1CCN(C(=O)[C@H](CCC(=O)O)NC(=O)c2cc(N3CCN(C(C)=O)CC3)nc(-c3ccccc3)n2)CC1 [(S)-4-(6-(4-acetylpiperazin-1-yl)-2-phenylpyrimidine-4-carboxamido)-5-oxo-5-(4-(pentyloxycarbonyl)piperazin-1-yl)pentanoic acid]
7 | 6.14 | CCCCCOC(=O)N1CCN(C(=O)[C@H](CCC(=O)O)NC(=O)c2cc(N3CCC(N)CC3)nc(-c3ccccc3)n2)CC1 [(S)-4-(6-(4-aminopiperidin-1-yl)-2-phenylpyrimidine-4-carboxamido)-5-oxo-5-(4-(pentyloxycarbonyl)piperazin-1-yl)pentanoic acid]
8 | 6.03 | CCCCCOC(=O)N1CCN(C(=O)[C@H](CCC(=O)O)NC(=O)c2cc(N3CCN(C(N)=O)CC3)nc(-c3ccccc3)n2)CC1 [(S)-4-(6-(4-carbamoylpiperazin-1-yl)-2-phenylpyrimidine-4-carboxamido)-5-oxo-5-(4-(pentyloxycarbonyl)piperazin-1-yl)pentanoic acid]
9 | 6.16 | CCCCCOC(=O)N1CCN(C(=O)[C@H](CCC(=O)O)NC(=O)c2cc(N3CCC(C(N)=O)CC3)nc(-c3ccccc3)n2)CC1 [(S)-4-(6-(4-carbamoylpiperidin-1-yl)-2-phenylpyrimidine-4-carboxamido)-5-oxo-5-(4-(pentyloxycarbonyl)piperazin-1-yl)pentanoic acid]
10 | 5.57 | CCCCCOC(=O)N1CCN(C(=O)[C@H](CCC(=O)O)NC(=O)c2cc(N3CCC(OC)CC3)nc(-c3ccccc3)n2)CC1 [(S)-4-(6-(4-methoxypiperidin-1-yl)-2-phenylpyrimidine-4-carboxamido)-5-oxo-5-(4-(pentyloxycarbonyl)piperazin-1-yl)pentanoic acid]
11 | 5.85 | CCCCCOC(=O)N1CCN(C(=O)[C@H](CCC(=O)O)NC(=O)c2cc(N3CCN(C)CC3)nc(-c3ccccc3)n2)CC1 [(S)-4-(6-(4-methylpiperazin-1-yl)-2-phenylpyrimidine-4-carboxamido)-5-oxo-5-(4-(pentyloxycarbonyl)piperazin-1-yl)pentanoic acid]
12 | < 5.00 | CCCCCOC(=O)N1CCN(C(=O)[C@H](CCC(=O)O)NC(=O)c2cc(N3CCC(C)CC3)nc(-c3ccccc3)n2)CC1 [(S)-4-(6-(4-methylpiperidin-1-yl)-2-phenylpyrimidine-4-carboxamido)-5-oxo-5-(4-(pentyloxycarbonyl)piperazin-1-yl)pentanoic acid]
13 | 6.11 | CCCCCOC(=O)N1CCN(C(=O)[C@H](CCC(=O)O)NC(=O)c2cc(N3CCC(N4CCOCC4)CC3)nc(-c3ccccc3)n2)CC1 [(S)-4-(6-(4-morpholinopiperidin-1-yl)-2-phenylpyrimidine-4-carboxamido)-5-oxo-5-(4-(pentyloxycarbonyl)piperazin-1-yl)pentanoic acid]
14 | 5.44 | CCCCCOC(=O)N1CCN(C(=O)[C@H](CCC(=O)O)NC(=O)c2cc(OCC3CCN(C)CC3)nc(-c3ccccc3)n2)CC1 [(S)-4-(6-((1-methylpiperidin-4-yl)methoxy)-2-phenylpyrimidine-4-carboxamido)-5-oxo-5-(4-(pentyloxycarbonyl)piperazin-1-yl)pentanoic acid]
15 | < 5.00 | CCCCCOC(=O)N1CCN(C(=O)[C@H](CCC(=O)O)NC(=O)c2cc(SC3CCCCC3)nc(-c3ccccc3)n2)CC1 [(S)-4-(6-(cyclohexylthio)-2-phenylpyrimidine-4-carboxamido)-5-oxo-5-(4-(pentyloxycarbonyl)piperazin-1-yl)pentanoic acid]
16 | < 5.00 | CCCCCOC(=O)N1CCN(C(=O)[C@H](CCC(=O)O)NC(=O)c2cc(SC3CCCC3)nc(-c3ccccc3)n2)CC1 [(S)-4-(6-(cyclopentylthio)-2-phenylpyrimidine-4-carboxamido)-5-oxo-5-(4-(pentyloxycarbonyl)piperazin-1-yl)pentanoic acid]
17 | < 5.00 | CCCCCOC(=O)N1CCN(C(=O)[C@H](CCC(=O)O)NC(=O)c2cc(SC(C)(C)C)nc(-c3ccccc3)n2)CC1 [(S)-4-(6-(tert-butylthio)-2-phenylpyrimidine-4-carboxamido)-5-oxo-5-(4-(pentyloxycarbonyl)piperazin-1-yl)pentanoic acid]
18 | 5.20 | CCCCCOC(=O)N1CCN(C(=O)[C@H](CCC(=O)O)NC(=O)c2cc(N3CCOCC3)nc(-c3ccccc3)n2)CC1 [(S)-4-(6-morpholino-2-phenylpyrimidine-4-carboxamido)-5-oxo-5-(4-(pentyloxycarbonyl)piperazin-1-yl)pentanoic acid]

Row | SMILES | pIC50
19 | CCCCOC(=O)N1CCN(C(=O)[C@H](CCC(=O)O)NC(=O)c2cc(OC3CCN(C(C)C)CC3)nc(-c3ccccc3)n2)CC1 [(S)-5-(4-(butoxycarbonyl)piperazin-1-yl)-4-(6-(1-isopropylpiperidin-4-yloxy)-2-phenylpyrimidine-4-carboxamido)-5-oxopentanoic acid] | 5.74
20 | CCCCOC(=O)N1CCN(C(=O)[C@H](CCC(=O)O)NC(=O)c2cc(OCCN(CC)CC)nc(-c3ccccc3)n2)CC1 [(S)-5-(4-(butoxycarbonyl)piperazin-1-yl)-4-(6-(2-(diethylamino)ethoxy)-2-phenylpyrimidine-4-carboxamido)-5-oxopentanoic acid] | 5.52
21 | CCCCOC(=O)N1CCN(C(=O)[C@H](CCC(=O)O)NC(=O)c2cc(OCCOC)nc(-c3ccccc3)n2)CC1 [(S)-5-(4-(butoxycarbonyl)piperazin-1-yl)-4-(6-(2-methoxyethoxy)-2-phenylpyrimidine-4-carboxamido)-5-oxopentanoic acid] | 5.59
22 | CCCCOC(=O)N1CCN(C(=O)[C@H](CCC(=O)O)NC(=O)c2cc(N3CCC(CCOC)CC3)nc(-c3ccccc3)n2)CC1 [(S)-5-(4-(butoxycarbonyl)piperazin-1-yl)-4-(6-(4-(2-methoxyethyl)piperidin-1-yl)-2-phenylpyrimidine-4-carboxamido)-5-oxopentanoic acid] | 5.92
23 | CCCCOC(=O)N1CCN(C(=O)[C@H](CCC(=O)O)NC(=O)c2cc(N3CCC(C(=O)N(CC)CC)CC3)nc(-c3ccccc3)n2)CC1 [(S)-5-(4-(butoxycarbonyl)piperazin-1-yl)-4-(6-(4-(diethylcarbamoyl)piperidin-1-yl)-2-phenylpyrimidine-4-carboxamido)-5-oxopentanoic acid] | 6.55
24 | CCCCOC(=O)N1CCN(C(=O)[C@H](CCC(=O)O)NC(=O)c2cc(N3CCC(C(=O)N(C)C)CC3)nc(-c3ccccc3)n2)CC1 [(S)-5-(4-(butoxycarbonyl)piperazin-1-yl)-4-(6-(4-(dimethylcarbamoyl)piperidin-1-yl)-2-phenylpyrimidine-4-carboxamido)-5-oxopentanoic acid] | 5.82
25 | CCCCOC(=O)N1CCN(C(=O)[C@H](CCC(=O)O)NC(=O)c2cc(N3CCC(OC)CC3)nc(-c3ccccc3)n2)CC1 [(S)-5-(4-(butoxycarbonyl)piperazin-1-yl)-4-(6-(4-methoxypiperidin-1-yl)-2-phenylpyrimidine-4-carboxamido)-5-oxopentanoic acid] | 5.74
26 | CCCCOC(=O)N1CCN(C(=O)[C@H](CCC(=O)O)NC(=O)c2cc(N3CCC(N4CCOCC4)CC3)nc(-c3ccccc3)n2)CC1 [(S)-5-(4-(butoxycarbonyl)piperazin-1-yl)-4-(6-(4-morpholinopiperidin-1-yl)-2-phenylpyrimidine-4-carboxamido)-5-oxopentanoic acid] | 6.06
27 | CCCCOC(=O)N1CCN(C(=O)[C@H](CCC(=O)O)NC(=O)c2cc(OCC3CCN(C)CC3)nc(-c3ccccc3)n2)CC1 [(S)-5-(4-(butoxycarbonyl)piperazin-1-yl)-4-(6-((1-methylpiperidin-4-yl)methoxy)-2-phenylpyrimidine-4-carboxamido)-5-oxopentanoic acid] | 5.52
28 | CCCCOC(=O)N1CCN(C(=O)[C@H](CCC(=O)O)NC(=O)c2cc(N3CCC(N4CCCC4)CC3)nc(-c3ccccc3)n2)CC1 [(S)-5-(4-(butoxycarbonyl)piperazin-1-yl)-5-oxo-4-(2-phenyl-6-(4-(pyrrolidin-1-yl)piperidin-1-yl)pyrimidine-4-carboxamido)pentanoic acid] | 6.18
29 | CCCCOC(=O)N1CCN(C(=O)[C@H](CCC(=O)O)NC(=O)c2cc(N3CCC(C(=O)N4CCCC4)CC3)nc(-c3ccccc3)n2)CC1 [(S)-5-(4-(butoxycarbonyl)piperazin-1-yl)-5-oxo-4-(2-phenyl-6-(4-(pyrrolidine-1-carbonyl)piperidin-1-yl)pyrimidine-4-carboxamido)pentanoic acid] | 6.41
